Measured values taken from patent EP2592154A1, “Immobilization products and methods for the identification of histone demethylase interacting molecules and for the purification of histone demethylase proteins” (CELLZOME AG, priority 2011, dated 2013).

Biological target: T1, endogenous UTY (Homo sapiens, UniProt O14607)
T1 construct: endogenous UTY; endogenous in cells; host or cells: THP-1 nuclear extract mixed 1:1 with HEK293 lysate
Experiment: Bead competition binding assay using immobilized example 1, concentration response curve (HEK293/THP-1 lysate mix)
Details: competition of binding to immobilized example 1, 0.156-40 µM, HEK293 lysate mixed 1:1 with THP-1 nuclear extract
Procedure: Then the affinity matrix with the immobilized example 1 was added to capture proteins that were not interacting with the previously added free reference compound. Beads were separated from the lysate and bead bound proteins were eluted in SDS sample buffer and subsequently separated by SDS-Polyacrylamide gel electrophoresis. The gel was stained with colloidal Coomassie and stained areas of each gel lane were cut out and subjected to in-gel proteolytic digestion with trypsin. Peptides originating from the different gel areas were labeled with isobaric tagging reagents (TMT reagents, Thermofisher) as shown in Table 6.
JMJD3 DNA encoding the catalytic domain (residues 1141-1682, lacking residues 1637-1675; GenBank BC009994) was amplified by PCR and sub cloned into pCDNA3.1 (+) (Invitrogen, V79020) using BamHI and EcoRI A Flag tag was included in the 5' primer, downstream of the BamHI cloning site. […]
HEK293 cells were homogenized in a Potter S homogenizer in lysis buffer: 50 mM Tris-HCl, 0.8% NP40, 5% glycerol, 150 mM NaCl, 1.5 mM MgCl2, 25 mM NaF, 1 mM sodium vanadate, 1 mM DTT, pH 7.5. […] The supernatant was transferred again to a fresh 50 ml falcon tube, the protein concentration was determined by a Bradford assay (BioRad) and samples containing 50 mg of protein per aliquot were prepared. […]

T1 sequence (O14607 whole entry): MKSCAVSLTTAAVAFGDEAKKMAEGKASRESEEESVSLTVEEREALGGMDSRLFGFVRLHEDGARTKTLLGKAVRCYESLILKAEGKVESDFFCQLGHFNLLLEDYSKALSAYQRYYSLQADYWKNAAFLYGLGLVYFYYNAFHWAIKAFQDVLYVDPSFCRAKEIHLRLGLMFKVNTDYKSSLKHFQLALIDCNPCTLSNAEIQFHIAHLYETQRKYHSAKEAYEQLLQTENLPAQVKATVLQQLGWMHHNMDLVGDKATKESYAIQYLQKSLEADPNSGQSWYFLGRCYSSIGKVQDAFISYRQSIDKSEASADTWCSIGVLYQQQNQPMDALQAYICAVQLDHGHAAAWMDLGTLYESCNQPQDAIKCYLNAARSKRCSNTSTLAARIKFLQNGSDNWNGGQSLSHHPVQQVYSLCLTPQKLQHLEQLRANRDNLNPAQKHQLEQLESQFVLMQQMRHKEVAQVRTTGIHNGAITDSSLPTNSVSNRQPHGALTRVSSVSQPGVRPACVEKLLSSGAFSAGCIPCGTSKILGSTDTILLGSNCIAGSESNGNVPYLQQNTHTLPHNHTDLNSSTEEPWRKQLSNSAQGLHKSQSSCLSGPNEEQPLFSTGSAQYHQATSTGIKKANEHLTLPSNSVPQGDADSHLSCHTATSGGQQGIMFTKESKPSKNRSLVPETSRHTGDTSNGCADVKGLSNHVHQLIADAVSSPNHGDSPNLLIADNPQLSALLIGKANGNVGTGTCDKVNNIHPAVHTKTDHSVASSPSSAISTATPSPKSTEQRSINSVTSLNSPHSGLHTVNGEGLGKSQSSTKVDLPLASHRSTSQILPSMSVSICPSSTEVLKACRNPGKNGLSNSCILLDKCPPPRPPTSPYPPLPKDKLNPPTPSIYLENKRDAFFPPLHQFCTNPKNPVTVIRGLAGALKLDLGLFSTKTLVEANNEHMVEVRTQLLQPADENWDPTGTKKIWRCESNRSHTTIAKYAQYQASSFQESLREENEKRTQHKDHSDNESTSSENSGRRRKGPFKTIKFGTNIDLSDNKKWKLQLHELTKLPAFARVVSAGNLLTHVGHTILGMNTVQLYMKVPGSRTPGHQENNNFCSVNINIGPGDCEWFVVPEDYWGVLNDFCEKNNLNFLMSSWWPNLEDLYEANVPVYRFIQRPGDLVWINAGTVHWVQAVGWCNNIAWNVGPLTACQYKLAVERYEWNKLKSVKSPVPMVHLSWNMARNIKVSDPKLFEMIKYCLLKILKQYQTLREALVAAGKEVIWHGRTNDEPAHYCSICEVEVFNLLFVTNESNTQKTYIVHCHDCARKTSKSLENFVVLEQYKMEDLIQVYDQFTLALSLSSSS

IC50: 1400 nM
SMILES: O=C(O)CCNc1cc(N2CCc3ccccc3CC2)nc(-c2ccccn2)n1 [Reference example 2, N-[2-(2-pyridinyl)-6-(1,2,4,5-tetrahydro-3H-3-benzazepin-3-yl)-4-pyrimidinyl]-β-alanine]
